What was measured:
[1] = system: FLT3 phosphorylation in Molm14 F691L cells; assay: Immunoblotting of phospho-FLT3 and downstream signaling, Molm14 F691L; type: cell-based, human; conditions: 2 hours, Western blot
Method: (§1) FIG. 1. Activity of compounds 1 and 2 against parental Molm14 cells harboring secondary kinase domain mutations associated with clinical resistance to active FLT3 TKIs. […] Each point represents the calculated IC50 from an independent experiment completed in triplicate. Cells were treated with inhibitor at increasing log doses (0.1 nM-10 μM) for 48 hours. Cell viability was analyzed through CellTiter GLO. […] Cells were exposed to increasing amounts of each drug for 2 hours. GAPDH1 represents loading control for phospho-ERK and ERK blots. GAPDH2 represents loading control for phosphor-STAT5, STAT5, phospho-S6 and S6. Each experiment was completed in triplicate. Representative images are shown.
(§2) Exponentially growing Molm-14 or Ba/F3 cells were plated with RPMI 1640+10% (vol/vol) FBS with the indicated amount of drug. Following 120 minute incubation at 37° C., cells were washed in PBS and lysed in HEPES lysis buffer supplemented with protease and phosphatase inhibitors and processed as previously described (39). Immunoblotting was performed using anti-phospho-tyrosine 4G10 antibody (Millipore Sigma) and anti-FLT3 antibody (Cell Signaling Technology) following immunoprecipitation with anti-FLT3 antibody from 500 μg of total protein. Immunoblotting of ERK, STAT5, S6 and GAPDH was performed with anti-phospho-ERK, anti-ERK, anti-phospho-STAT5, anti-STAT5, anti-phospho-S6, anti-S6 and anti-GAPDH antibody (Cell Signaling Technology)

[2] = system: K562 cells (non-FLT3 driven); assay: Cell viability assay (CellTiter GLO), K562; type: cell-based, human; conditions: K562, 48 hours
Method: (§3) FIG. 1. […] Cells were treated with inhibitor at increasing log doses (0.1 nM-10 μM) for 48 hours. Cell viability was analyzed through CellTiter GLO. […] Cells were exposed to increasing amounts of each drug for 2 hours. GAPDH1 represents loading control for phospho-ERK and ERK blots. GAPDH2 represents loading control for phosphor-STAT5, STAT5, phospho-S6 and S6. Each experiment was completed in triplicate. Representative images are shown.
(§4) MV-4-11 and parental Molm-14 cells were a gift from Dr. Scott Kogan (University of California, San Francisco). HL60 and K562 cell lines were obtained from Charles Sawyers. […] Stable Ba/F3 lines were generated by retroviral infection as previously described (5). All cell lines were tested to be mycoplasma free and human cell lines were authenticated through STR profiling completed at the University of California, Berkeley.
(§5) Each triplicate was either dosed with drug or DMSO vehicle control. Drug dosing was completed at log doses ranging from 0.1 nM-10 μM. Cell viability was assessed after 48 hours using CellTiter GLO (Promega). Viability values were normalized to the vehicle control average. Numerical IC50 values were calculated in GraphPad Prism 7.

[3] = system: MV-4-11 cells (FLT3-ITD-expressing); assay: Cell viability assay (CellTiter GLO), MV-4-11; type: cell-based, human; conditions: MV-4-11, 48 hours
Method: as §3, §4, §5

[4] = system: normal donor bone marrow mononuclear cells (BM-MNC); assay: Colony forming unit assay of normal bone marrow; conditions: for impact on CFU-G counts/growth: equivalent multiples of Molm14 IC50, 14 days, three healthy donors
Method: FIG. 2. […] Normal bone marrow mononuclear cells (BM-MNC) were purchased from StemCell Technologies. 30,000 cells were plated in methylcellulose with increasing concentrations of either gilteritinib, 1, or 2. Blast forming unit-erythroid (BFU-E) and colony forming unit-granulocyte (CFU-G) were counted after 14 days incubation. Assay was completed in triplicate with three independent blood donors. Data shown is cumulated from all independent experiments. Error bars show one standard deviation and p values compared to control were calculated using a Student's t-test. NS indicates an insignificant p value, * indicates p value≤0.05, ** indicates p value≤0.01, *** indicates p value≤0.001, **** indicates p value≤0.0001
Bone marrow mononuclear cells (BM-MNC) of healthy donors (n=3) were purchased from StemCell Technologies (Vancouver, Canada). Cells were plated in a 35 mm dish in triplicate with methylcellulose medium at a concentration previously determined to form approximately 100 total colonies, usually 30,000 cells/mL and containing the appropriate amount of drug. Dishes were incubated for 14-15 days and visually assessed for erythrocyte burst-forming units and granulocyte-macrophage colony-forming units.

[5] = system: TKI-naïve primary AML patient samples expressing FLT3-ITD; assay: Short-term liquid culture growth inhibition of primary AML samples; type: cell-based, human; conditions: 100 nM, up to 7 days, CellTiter GLO, five patient samples
Method: FIG. 11. Activity of compounds against primary FLT3-ITD AML samples in short term liquid culture assays. […] Plates were incubated with drug for 0, 1, 2, 3, 5 or 7 days. FLT3 mutation is noted for each patient in parentheses. Cell viability was analyzed through CellTiter GLO.
The compounds were further evaluated for activity against TKI-naïve primary AML patient samples expressing FLT3-ITD in short-term liquid culture growth inhibition assays (24).

[6] = system: FLT3 signaling in Molm14 subcutaneous xenografts; assay: In vivo target inhibition in Molm14 subcutaneous xenografts; design: species or system mice; conditions: for oral bioavailability and pharmacokinetic profile, in words: mice, oral gavage; for inhibition of target and downstream effectors at 4 hour and 8 hours: single dose by oral gavage, all doses, Western blot of tumors
Excerpt: FIG. 6. Assessment of in vivo target inhibition by compounds 1 and 2 in Molm14 subcutaneous xenografts. Western blot analysis of 1 and 2 in a Molm14 xenograft model.

[7] = system: FLT3 phosphorylation in Molm14 D835Y cells; assay: Immunoblotting of phospho-FLT3 and downstream signaling, Molm14 D835Y; type: cell-based, human; conditions: 2 hours, Western blot
Method: as §1, §2

[8] = system: NCI-60 cell line panel (no FLT3 mutation); assay: NCI-60 cell line panel; type: cell-based, human; conditions: for cytotoxic activity in NCI-60 panel, in words: compound 1: 30 μM single dose, compound 2: 5-dose; for antiproliferative effects in NCI-60 panel, in words: higher concentrations
Method: FIG. 12. Activity of compound 1 against the NCI-60 cell line panel. Percentage growth of 1 in the 30 μM single dose experiment within the NCI-60 cell line panel. No cell line within the panel harbors a FLT3 mutation.
FIG. 13. Activity of compound 2 against the NCI-60 cell line panel. Growth inhibition curves of 2 in the 5-dose GIso experiment within the NCI-60 cell line panel. No cell line within the panel harbors a FLT3 mutation.
Myelosuppression represents a critical limitation of current FLT3 TKIs. To assess the selectivity profiles, KINOMEscan screening was performed for 1, 2, and gilteritinib at 20× the Molm14 IC50 concentration of each compound (FIG. 2A).

Molm14 D835Y cells = assay: Cell viability assay (CellTiter GLO), Molm14 D835Y; type: cell-based, human; conditions: 48 hours
Method: as §3
FIG. 5. […] Cells were dosed with inhibitor at increasing log doses (0.1 nM-10 μM) for 48 hours. Cell viability was analyzed through CellTiter GLO.
as §4, §5

Row | Structure (SMILES) | inhibition of FLT3 phosphorylation, in words [1] | activity in cell viability assay (IC50, FIG. 1A), in words [2] | activity in cell viability assay (IC50, FIG. 1A), in words [3] | impact on BFU-E counts/growth [4] | impact on CFU-G counts/growth [4] | activity against primary FLT3-ITD AML samples, in words [5] | oral bioavailability and pharmacokinetic profile, in words [6] | inhibition of target and downstream effectors at 4 hour and 8 hours [6] | target inhibition at 24 hours ([6]; single oral dose, 2 mg/kg and 10 mg/kg) | inhibition of FLT3 phosphorylation and downstream targets, in words [7] | cytotoxic activity in NCI-60 panel, in words [8] | antiproliferative effects in NCI-60 panel, in words [8] | activity in cell viability assay (IC50, FIG. 1A/5B), in words (Molm14 D835Y cells) | concentration with complete elimination of phosphorylation [1] [nM] | concentration with noticeable decrease in phosphorylation [1] [nM] | target inhibition at 24 hours ([6]; single oral dose, 10 mg/kg) | kinase signaling at 24 hours ([6]; single oral dose, lower doses) | concentration that fully ablated FLT3 phosphorylation [7] [nM]
1 | CN(C)CCNc1ncc(F)c(-c2cnc3cc(-c4cnn(C)c4)ccn23)n1 [Compound 1] | decreased level of activity | neither compound displayed any concerning toxicity | activity comparable to quizartinib and superior to gilteritinib | no significant impact on BFU-E growth at any concentration | less impact on CFU-G growth than gilteritinib | activity comparable to quizartinib and gilteritinib in all samples | oral bioavailability and acceptable pharmacokinetic profiles | inhibition of target and downstream effectors at all doses | sufficient for retaining target inhibition for 24 hours | potent inhibition of phosphorylation | neither compound displayed any significant cytototoxic activity | antiproliferative effects were noted at higher concentrations | retain activity |  |  |  |  | 
2 | CC(C)(C)c1cc(NC(=O)Cc2ccc(-c3cnc4cc(-c5cnn(CCN6CCOCC6)c5)ccc4n3)cc2)no1 [Compound 2, N-(5-(tert-butyl)isoxazol-3-yl)-2-(4-(6-(1-(2-morpholinoethyl)-1H-pyrazol-4-yl)quinoxalin-2-yl)phenyl) acetamide] | most potent of all the inhibitors evaluated | neither compound displayed any concerning toxicity | activity comparable to quizartinib and superior to gilteritinib | no significant impact on BFU-E growth at any concentration | less impact on CFU-G growth than gilteritinib | most potent activity of all the compounds | oral bioavailability and acceptable pharmacokinetic profiles | inhibition of target and downstream effectors at all doses |  | somewhat decreased ability to inhibit phosphorylation | neither compound displayed any significant cytototoxic activity | antiproliferative effects were noted at higher concentrations | retain activity | 50 | 10 | sustained target inhibition | kinase signaling was restored | 50
